Marks after values point to notes of the source that are not given here.
Key:
[1] = from http://www.drugbank.ca/drugs/DB00482; cited from earlier work
[2] = tested on: human intestine microsomes; test: Glucuronidation by human intestine microsomes; type: in vitro ADME; details: human; substrate 10 μM
Description: (§1) FIG. 5D is a bar graph illustrating in vitro metabolism of phenolics. Glucuronidation rates of 6a1-6a4 by human liver and intestinal microsomes. Additional metabolic rates of various locally bioavailable COX-2 inhibitors are in Table 4. […]. The incubation systems were: for glucuronidation, 0.88 mM magnesium chloride (MgCl2), 4.4 mM saccharolactone, 0.022 mg/mL alamethicin, 3.5 mM uridine 5′-diphospho-glucuronic acid (UDPGA), 10 μM substrates and different concentrations of microsomes in 50 mM potassium phosphate buffer (pH 7.4); for sulfation, 10 mM dithiothreitol (DTT), 5 mM MgCl2, 100 μM 3′-phosphoadenosine-5′-phosphosulfate (PAPS),10 μM substrate and different concentrations of S9 fractions in 50 mM potassium phosphate buffer (pH 7.4).
(§2) In vitro tools were employed to help predict the in vivo metabolism rates of the COX-2 inhibitors that are phenolics. The microsomes and S9 fractions prepared from colon or liver were used to determine the in vivo glucuronidation and sulfation rates of the phenolic compounds, respectively. By employing microsomes and S9 fractions prepared from both rats and humans, it could be determined if the results obtained in the rat model could be reasonably extrapolated to humans. In these experiments, raloxifene and genistein, two phenolic compounds which undergo extensive first-pass metabolism, were selected as controls.

rat liver S9 = test: Sulfation by rat liver S9 fractions; type: in vitro ADME; details: substrate 10 μM
Description: as §1, with “FIG. 5C” for “FIG. 5D”, “of phenolics via sulfonation pathway. Sulfation” for “of phenolics. Glucuronidation”, “by rat” for “by human”, “and colon S9 fractions.” for “and intestinal microsomes.”, “Table 3.” for “Table 4.”, “μM 3′-phosphoadeno sine-5′-phosphosulfate” for “μM 3′-phosphoadenosine-5′-phosphosulfate”
as §2

human liver microsomes = test: Glucuronidation by human liver microsomes; type: in vitro ADME; details: human; substrate 10 μM
Description: as §1, §2

human liver S9 = test: Sulfation by human liver S9; type: in vitro ADME; details: substrate 10 μM
Description: as §1, §2

rat colon microsomes = test: Glucuronidation by rat colon microsomes; type: in vitro ADME; details: rat; substrate 10 μM
Description: (§3) FIG. 5B is a bar graph illustrating in vitro glucuronidation of phenolics in liver and colon microsomes of rats. Glucuronidation rates of 6a1-6a4 by rat liver and colon microsomes were measured. Additional metabolic rates of various locally bioavailable COX-2 inhibitors are in Table 3. […]. The incubation systems were: for glucuronidation, 0.88 mM magnesium chloride (MgCl2), 4.4 mM saccharolactone, 0.022 mg/mL alamethicin, 3.5 mM uridine 5′-diphospho-glucuronic acid (UDPGA), 10 μM substrates and different concentrations of microsomes in 50 mM potassium phosphate buffer (pH 7.4); for sulfation, 10 mM dithiothreitol (DTT), 5 mM MgCl2, 100 μM 3′-phosphoadenosine-5′-phosphosulfate (PAPS), 10 μM substrate and different concentrations of S9 fractions in 50 mM potassium phosphate buffer (pH 7.4).
as §2

human intestine S9 = test: Sulfation by human intestine S9; type: in vitro ADME; details: substrate 10 μM
Description: as §1, §2

rat colon S9 = test: Sulfation by rat colon S9 fractions; type: in vitro ADME; details: substrate 10 μM
Description: as §3, with “FIG. 5C” for “FIG. 5B”, “vitro metabolism” for “vitro glucuronidation”, “phenolics via sulfonation pathway. Sulfation” for “phenolics in liver and colon microsomes of rats. Glucuronidation”, “colon S9 fractions.” for “colon microsomes were measured.”, “μM 3′-phosphoadeno sine-5′-phosphosulfate (PAPS),10” for “μM 3′-phosphoadenosine-5′-phosphosulfate (PAPS), 10”
as §2

rat liver microsomes = test: Glucuronidation by rat liver microsomes; type: in vitro ADME; details: rat; substrate 10 μM
Description: as §3, with “FIG. 5A” for “FIG. 5B”, “vitro metabolism” for “vitro glucuronidation”, “phenolics via glucuronidation pathway.” for “phenolics in liver and colon microsomes of rats.”, “of all the new locally bioavailable COX-2 inhibitors” for “of 6a1-6a4”, “liver microsomes.” for “liver and colon microsomes were measured.”, “3′-phosphoadenosine-5′-phosphosulfate (PAPS),10” for “3′-phosphoadenosine-5′-phosphosulfate (PAPS), 10”
as §2

In the case of `Cc1ccc(-c2cc(C(F)(F)F)nn2-c2ccc(S(N)(=O)=O)cc2)cc1` [Celecoxib, celecoxib], the LogP [1] is listed as 4.01^b.

With `O=c1c(-c2ccc(O)cc2)coc2cc(O)cc(O)c12` [Genistein, reference compound] the “Glucuronidation rates by intestine microsomes (Mean)” value [2] was 4665 pmol/mg/min, the “Sulfation rates by liver S9 (Mean)” value (rat liver S9) was 77 pmol/mg/min and the “Glucuronidation rates by liver microsomes (Mean)” value (human liver microsomes) was 965 pmol/mg/min. For the same molecule, the “Sulfation rates by liver S9 (Mean)” value (human liver S9) was 24 pmol/mg/min, the “Glucuronidation rates by colon microsomes (Mean)” value (rat colon microsomes) was 142 pmol/mg/min and the “Sulfation rates by human intestine S9 (Mean)” value (human intestine S9) was 46 pmol/mg/min. For the same molecule, the “Sulfation rates by colon S9 (Mean)” value (rat colon S9) was 4 pmol/mg/min and the “Glucuronidation rates by liver microsomes (Mean)” value (rat liver microsomes) was 2199 pmol/mg/min.
